In US20240158446A1, “CYCLIC COMPOUND HAVING SELECTIVE INHIBITORY ACTION ON KRAS OVER HRAS AND NRAS” (CHUGAI SEIYAKU KABUSHIKI KAISHA, priority 2021, published 2024):
Read-outs that look alike come from different tables or passages of the source.

Key:
[1] = molecular target: GDP-bound KRAS wild-type protein (Homo sapiens, UniProt P01116); assay: Binding to KRAS by surface plasmon resonance (SPR), Single Cycle Kinetics; conditions: SPR, Single Cycle Kinetics, GDP-bound KRAS wild-type protein, read-out: KRAS KD
Chain of GDP-bound KRAS wild-type protein (P01116 whole entry): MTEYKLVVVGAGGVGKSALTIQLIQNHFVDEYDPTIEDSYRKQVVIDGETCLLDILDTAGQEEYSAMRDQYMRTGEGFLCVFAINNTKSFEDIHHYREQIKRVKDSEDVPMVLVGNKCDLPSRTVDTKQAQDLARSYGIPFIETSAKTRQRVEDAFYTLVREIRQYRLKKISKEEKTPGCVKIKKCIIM

[2] = molecular target: GDP-bound NRAS wild-type protein (Homo sapiens, UniProt P01111); assay: Binding to NRAS by surface plasmon resonance (SPR), Single Cycle Kinetics; conditions: SPR, GDP-bound NRAS wild-type protein vs GDP-bound KRAS wild-type protein
Chain of GDP-bound NRAS wild-type protein (P01111 whole entry): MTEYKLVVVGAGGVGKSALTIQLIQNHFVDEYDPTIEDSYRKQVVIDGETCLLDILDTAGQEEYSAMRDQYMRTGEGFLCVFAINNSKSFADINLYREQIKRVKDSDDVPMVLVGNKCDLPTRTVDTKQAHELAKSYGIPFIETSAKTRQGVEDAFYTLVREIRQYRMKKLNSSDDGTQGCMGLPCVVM

[3] = molecular target: GDP-bound HRAS wild-type protein (Homo sapiens, UniProt P01112); assay: Binding to HRAS by surface plasmon resonance (SPR), Single Cycle Kinetics; conditions: SPR, GDP-bound HRAS wild-type protein vs GDP-bound KRAS wild-type protein
Chain of GDP-bound HRAS wild-type protein (P01112 whole entry): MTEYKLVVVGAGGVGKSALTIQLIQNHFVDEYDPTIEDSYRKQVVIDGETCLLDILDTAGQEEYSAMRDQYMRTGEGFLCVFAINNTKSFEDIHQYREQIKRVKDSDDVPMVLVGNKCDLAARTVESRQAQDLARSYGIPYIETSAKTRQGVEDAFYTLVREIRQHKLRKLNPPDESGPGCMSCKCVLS

| SMILES | Kd [1] [nM] | NRAS/KRAS (ratio of KD value for NRAS to KD value for KRAS) [2] | HRAS/KRAS (ratio of KD value for HRAS to KD value for KRAS) [3] | Kd ([1]; 1:1 binding model) [nM] | NRAS/KRAS (ratio of KD value for NRAS to KD value for KRAS) ([2]; KD ratio class) | HRAS/KRAS (ratio of KD value for HRAS to KD value for KRAS) ([3]; KD ratio class) |
| --- | --- | --- | --- | --- | --- | --- |
| CCO[C@@H]1C[C@H]2C(=O)NC3(CCC3)C(=O)N(C)[C@@H](C3CCCC3)C(=O)N(C)[C@H](C(=O)N(C)C)CC(=O)N(C)[C@@H](Cc3cccc(F)c3)C(=O)N[C@@H]([C@@H](C)CC)C(=O)N(C)CC(=O)N(C)[C@H]3C/C=C\CCN(C3=O)[C@@H](Cc3ccc(C(F)(F)F)cc3)C(=O)N(C)CC(=O)N[C@@H](CCc3cc(F)c(C(F)(F)F)c(F)c3)C(=O)N2C1 [PP1126, (2S,8S,12R,14S,20S,23S,27S,30S,36S,38Z)-20-cyclopentyl-8-[2-[3,5-difluoro-4-(trifluoromethyl)phenyl]ethyl]-12-ethoxy-27-[(3-fluorophenyl)methyl]-N,N,4,19,22,26,32,35-octamethyl-30-[(1S)-1-methylpropyl]-3,6,9,15,18,21,25,28,31,34,42-undecaoxo-2-[[4-(trifluoromethyl)phenyl]methyl]spiro[1,4,7,10,16,19,22,26,29,32,35-undecazatricyclo[34.5.1.0^10,14]dotetracont-38-ene-17,1′-cyclobutane]-23-carboxamide] | 0.089 | A (a compound having 10 or more and less than 20 is denoted as A) | A (a compound having 10 or more and less than 20 is denoted as A) | – | – | – |
| CCO[C@@H]1C[C@H]2C(=O)NC3(CCC3)C(=O)N(C)[C@@H](C3CCCC3)C(=O)N(C)[C@H](C(=O)N(C)C)CC(=O)N(C)[C@@H](Cc3cccc(Cl)c3)C(=O)N[C@@H]([C@@H](C)CC)C(=O)N(C)CC(=O)N(C)[C@H]3C/C=C\CCN(C3=O)[C@@H](Cc3ccc(C(F)(F)F)cc3)C(=O)N(C)CC(=O)N[C@@H](CCc3cc(F)c(C(F)(F)F)c(F)c3)C(=O)N2C1 [PP1127, (2S,8S,12R,14S,20S,23S,27S,30S,36S,38Z)-27-[(3-chlorophenyl)methyl]-20-cyclopentyl-8-[2-[3,5-difluoro-4-(trifluoromethyl)phenyl]ethyl]-12-ethoxy-N,N,4,19,22,26,32,35-octamethyl-30-[(1S)-1-methylpropyl]-3,6,9,15,18,21,25,28,31,34,42-undecaoxo-2-[[4-(trifluoromethyl)phenyl]methyl]spiro[1,4,7,10,16,19,22,26,29,32,35-undecazatricyclo[34.5.1.0^10,14]dotetracont-38-ene-17,1′-cyclobutane]-23-carboxamide] | 0.11 | AA (a compound having 20 or more is denoted as AA) | A (a compound having 10 or more and less than 20 is denoted as A) | – | – | – |
| CC[C@H](C)[C@@H]1NC(=O)[C@H](CC)N(C)C(=O)C[C@@H](C(=O)N(C)C)N(C)C(=O)[C@H](C2CCCC2)N(C)C(=O)C2(CCC2)NC(=O)[C@@H]2C[C@H](OC)CN2C(=O)[C@H](CCc2cc(F)c(C(F)(F)F)c(F)c2)NC(=O)CN(C)C(=O)[C@H](Cc2ccc(C(F)(F)F)cc2)N2CC/C=C\C[C@@H](C2=O)N(C)C(=O)CN(C)C1=O [PP1128, (2S,8S,12S,14S,20S,23S,27S,30S,36S,38Z)-20-cyclopentyl-8-[2-[3,5-difluoro-4-(trifluoromethyl)phenyl]ethyl]-27-ethyl-12-methoxy-N,N,4,19,22,26,32,35-octamethyl-30-[(1S)-1-methylpropyl]-3,6,9,15,18,21,25,28,31,34,42-undecaoxo-2-[[4-(trifluoromethyl)phenyl]methyl]spiro[1,4,7,10,16,19,22,26,29,32,35-undecazatricyclo[34.5.1.0^10,14]dotetracont-38-ene-17,1′-cyclobutane]-23-carboxamide] | 0.12 | AA (a compound having 20 or more is denoted as AA) | A (a compound having 10 or more and less than 20 is denoted as A) | – | – | – |
| CCO[C@@H]1C[C@H]2C(=O)NC3(CCC3)C(=O)N(C)[C@@H](C3CCCC3)C(=O)N(C)[C@H](C(=O)N3C[C@@H](C)O[C@@H](C)C3)CC(=O)N(C)[C@@H](CC(C)C)C(=O)N[C@@H]([C@@H](C)CC)C(=O)N(C)CC(=O)N(C)[C@H]3CCCCCN(C3=O)[C@@H](Cc3ccc(F)cc3)C(=O)N(C)CC(=O)N[C@@H](CCc3ccc(C(F)(F)F)c(Cl)c3)C(=O)N2C1 [PP1153] | 0.28 | B (a compound having 3 or more and less than 10 is denoted as B) | B (a compound having 3 or more and less than 10 is denoted as B) | – | – | – |
| CCCO[C@@H]1C[C@H]2C(=O)NC3(CCC3)C(=O)N(C)[C@@H](C3CCCC3)C(=O)N(C)[C@H](C(=O)N3CCOCC3)CC(=O)N(C)[C@@H](CC(C)C)C(=O)N[C@@H]([C@@H](C)CC)C(=O)N(C)CC(=O)N(C)[C@H]3CCCCCN(C3=O)[C@@H](Cc3ccc(C(F)(F)F)cc3)C(=O)N(C)CC(=O)N[C@@H](CCc3cc(F)c(C(F)(F)F)c(F)c3)C(=O)N2C1 [PP1161] | 0.6 | B (a compound having 3 or more and less than 10 is denoted as B) | B (a compound having 3 or more and less than 10 is denoted as B) | – | – | – |
| CCO[C@@H]1C[C@H]2C(=O)NC3(CCC3)C(=O)N(C)[C@@H](C3CCCC3)C(=O)N(C)[C@H](C(=O)N(C)CC)CC(=O)N(C)[C@@H](CC(C)C)C(=O)N[C@@H]([C@@H](C)CC)C(=O)N(C)CC(=O)N(C)[C@H]3C/C=C\CCN(C3=O)[C@@H](Cc3ccc(C(F)(F)F)cc3)C(=O)N(C)CC(=O)N[C@@H](CCc3cc(F)c(C(F)(F)F)c(F)c3)C(=O)N2C1 [PP1300, (2S,8S,12R,14S,20S,23S,27S,30S,36S,38Z)-20-cyclopentyl-8-[2-[3,5-difluoro-4-(trifluoromethyl)phenyl]ethyl]-12-ethoxy-N-ethyl-27-isobutyl-N,4,19,22,26,32,35-heptamethyl-30-[(1S)-1-methylpropyl]-3,6,9,15,18,21,25,28,31,34,42-undecaoxo-2-[[4-(trifluoromethyl)phenyl]methyl]spiro[1,4,7,10,16,19,22,26,29,32,35-undecazatricyclo[34.5.1.0^10,14]dotetracont-38-ene-17,1′-cyclobutane]-23-carboxamide] | – | – | – | 0.082 | A (a compound having 10 or more and less than 20 is denoted as A) | A (a compound having 10 or more and less than 20 is denoted as A) |
| CCO[C@@H]1C[C@H]2C(=O)NC3(CCC3)C(=O)N(C)[C@@H](C3CCCC3)C(=O)N(C)[C@H](C(=O)N(C)CC)CC(=O)N(C)[C@@H](CC3CC3)C(=O)N[C@@H]([C@@H](C)CC)C(=O)N(C)CC(=O)N(C)[C@H]3C/C=C\CCN(C3=O)[C@@H](Cc3ccc(C(F)(F)F)cc3)C(=O)N(C)CC(=O)N[C@@H](CCc3cc(F)c(C(F)(F)F)c(F)c3)C(=O)N2C1 [PP1301] | – | – | – | 0.083 | A (a compound having 10 or more and less than 20 is denoted as A) | A (a compound having 10 or more and less than 20 is denoted as A) |
